Reference: US4156724A, “N-acylamino-alpha-arylacetamido cephalosporins and antibacterial compositions and methods containing them” (Sumitomo Chemical Company, Limited, priority 1974, dated 1979)
Values after ≈ are worked out from the molar mass of the structure shown.

Tests used:
Type in all cases: cell-based
[1] = tested on: Staphylococcus aureus 209 P; assay: Minimum Inhibitory Concentration, Staphylococcus aureus 209 P; conditions: Staphylococcus aureus 209 P; for MIC: read-out: Minimum Inhibitory Concentration
Description: (§1) anti-microbial activity tests were carried out on the compounds obtained in the Examples.

[2] = tested on: Staphylococcus aureus FS 289; assay: Minimum Inhibitory Concentration, Staphylococcus aureus FS 289; conditions: Staphylococcus aureus FS 289, strain resistant to penicillin; for MIC: FS289, read-out: Minimum Inhibitory Concentration
Description: as §1
*Staphylococcus aureus FS 289: strain resistant to penicillin

Escherichia coli NIHJ = assay: Minimum Inhibitory Concentration, Escherichia coli NIHJ; conditions: Escherichia coli NIHJ; for MIC: read-out: Minimum Inhibitory Concentration
Description: as §1

[3] = tested on: Klebsiella pneumoniae 602; assay: Minimum Inhibitory Concentration, Klebsiella pneumoniae 602; conditions: for MIC: Klebsiella pneumoniae, 602, Klebsiella pneumoniae 602, read-out: Minimum Inhibitory Concentration; for Minimum Inhibitory Concentration: Klebsiella pneumoniae 602
Description: as §1

Proteus vulgaris HX 19 = assay: Minimum Inhibitory Concentration, Proteus vulgaris HX 19; conditions: Proteus vulgaris HX 19; for MIC: HX19, read-out: Minimum Inhibitory Concentration
Description: as §1

[4] = tested on: Pseudomonas aeruginosa 104; assay: Minimum Inhibitory Concentration, Pseudomonas aeruginosa 104; conditions: Pseudomonas aeruginosa 104; for MIC: read-out: Minimum Inhibitory Concentration
Description: as §1

Serratia No. 72 = assay: Minimum Inhibitory Concentration, Serratia No. 72
Description: as §1

[5] = tested on: Enterobacter aerogeneus No. 75; assay: Minimum Inhibitory Concentration, Enterobacter aerogeneus No. 75; conditions: Enterobacter aerogeneus No. 75; for MIC: read-out: Minimum Inhibitory Concentration
Description: as §1

SMILES	MIC [1] [µg/mL]	MIC [2] [µg/mL]	MIC (Escherichia coli NIHJ) [µg/mL]	MIC [3] [µg/mL]	MIC (Proteus vulgaris HX 19) [µg/mL]	MIC [4] [µg/mL]	MIC (Serratia No. 72) [µg/mL]	MIC [5] [µg/mL]	Minimum Inhibitory Concentration [1] [µg/mL]	Minimum Inhibitory Concentration [2] [µg/mL]	Minimum Inhibitory Concentration (Escherichia coli NIHJ) [µg/mL]	Minimum Inhibitory Concentration [3] [µg/mL]	Minimum Inhibitory Concentration (Proteus vulgaris HX 19) [µg/mL]	Minimum Inhibitory Concentration [4] [µg/mL]	Minimum Inhibitory Concentration (Serratia No. 72) [µg/mL]	Minimum Inhibitory Concentration [5] [µg/mL]
NC(=O)Nc1cccc(C(NC(=O)c2ccnnc2O)C(=O)NC2C(=O)N3C(C(=O)O)=C(CSc4nnc(CO)s4)CSC23)c1 (centres unmarked) [Example 48]	0.78 (≈ 1.16 µM)	12.5 (≈ 18.6 µM)	12.5 (≈ 18.6 µM)	3.13 (≈ 4.65 µM)	0.78 (≈ 1.16 µM)	25 (≈ 37.1 µM)	100 (≈ 148 µM)	25 (≈ 37.1 µM)								
Cc1cc(C(NC(=O)c2cnc3cccnc3c2O)C(=O)NC2C(=O)N3C(C(=O)O)=C(CSc4ccc(O)nn4)CSC23)ccc1O (centres unmarked) [Example 161]	0.78 (≈ 1.15 µM)	12.5 (≈ 18.5 µM)	6.25 (≈ 9.25 µM)	3.13 (≈ 4.63 µM)	0.39 (≈ 0.577 µM)	6.25 (≈ 9.25 µM)	50 (≈ 74 µM)	12.5 (≈ 18.5 µM)								
CC(=O)OCC1=C(C(=O)O)N2C(=O)C(NC(=O)[C@H](NC(=O)c3cnc4cccnc4c3O)c3ccc(O)c(Cl)c3)C2SC1 (some centres unmarked) [Example 122]	0.78 (≈ 1.24 µM)	6.25 (≈ 9.95 µM)	3.13 (≈ 4.98 µM)	3.13 (≈ 4.98 µM)	0.39 (≈ 0.621 µM)	6.25 (≈ 9.95 µM)	50 (≈ 79.6 µM)	6.25 (≈ 9.95 µM)								
Cc1nnc(SCC2=C(C(=O)O)N3C(=O)C(NC(=O)C(NC(=O)c4cnc5cccnc5c4O)c4ccc(CO)cc4)C3SC2)s1 (centres unmarked) [Example 96]	1.56 (≈ 2.29 µM)	6.25 (≈ 9.19 µM)	3.13 (≈ 4.6 µM)	1.56 (≈ 2.29 µM)	0.2 (≈ 0.294 µM)	6.25 (≈ 9.19 µM)	12.5 (≈ 18.4 µM)	6.25 (≈ 9.19 µM)								
O=C(O)C1=C(CSc2nncs2)CSC2C(NC(=O)C(NC(=O)c3cncnc3O)c3ccc(CO)cc3)C(=O)N12 (centres unmarked) [Example 95]	0.78 (≈ 1.27 µM)	12.5 (≈ 20.3 µM)	25 (≈ 40.6 µM)	12.5 (≈ 20.3 µM)	0.78 (≈ 1.27 µM)	25 (≈ 40.6 µM)	50 (≈ 81.2 µM)	25 (≈ 40.6 µM)								
Cc1nnc(SCC2=C(C(=O)O)N3C(=O)[C@@H](NC(=O)[C@H](NC(=O)c4ccnnc4O)c4ccc(NC(N)=O)cc4)[C@H]3SC2)s1 [Example 16]	0.39 (≈ 0.593 µM)	6.25 (≈ 9.5 µM)	6.25 (≈ 9.5 µM)	3.13 (≈ 4.76 µM)	0.2 (≈ 0.304 µM)	6.25 (≈ 9.5 µM)	50 (≈ 76 µM)	6.25 (≈ 9.5 µM)								
Cc1nc2ncc(C(=O)NC(C(=O)NC3C(=O)N4C(C(=O)O)=C(CSc5nnnn5C)CSC34)c3ccc(CO)cc3)c(O)c2nc1C (centres unmarked) [Example 105]	0.78 (≈ 1.13 µM)	6.25 (≈ 9.02 µM)	6.25 (≈ 9.02 µM)	3.13 (≈ 4.52 µM)	0.2 (≈ 0.289 µM)	6.25 (≈ 9.02 µM)	12.5 (≈ 18 µM)	12.5 (≈ 18 µM)								
Cc1nnc(SCC2=C(C(=O)O)N3C(=O)[C@@H](NC(=O)[C@H](NC(=O)c4ccnnc4O)c4cccc(NC(N)=O)c4)[C@H]3SC2)s1 [Example 15]	0.39 (≈ 0.593 µM)	6.25 (≈ 9.5 µM)	12.5 (≈ 19 µM)	3.13 (≈ 4.76 µM)	0.1 (≈ 0.152 µM)	6.25 (≈ 9.5 µM)	50 (≈ 76 µM)	6.25 (≈ 9.5 µM)								
NC(=O)Nc1ccc([C@@H](NC(=O)c2cnc3cccnc3c2O)C(=O)N[C@@H]2C(=O)N3C(C(=O)O)=C(CSc4cnn[nH]4)CS[C@H]23)cc1 [Example 23]	1.56 (≈ 2.31 µM)	6.25 (≈ 9.24 µM)	3.13 (≈ 4.63 µM)	1.56 (≈ 2.31 µM)	0.2 (≈ 0.296 µM)	3.13 (≈ 4.63 µM)	12.5 (≈ 18.5 µM)	3.13 (≈ 4.63 µM)								
CSc1cnc2c(O)c(C(=O)NC(C(=O)NC3C(=O)N4C(C(=O)[O-])=C(COC(C)=O)CSC34)c3cccc(O)c3)cnc2n1.[Na+] (centres unmarked) [Example 140]									0.78	6.25	3.13	6.25	1.56	6.25	50	12.5
O=C(O)C1=C(CSc2nnc(CO)s2)CSC2C(NC(=O)C(NC(=O)c3cnc4cccnc4c3O)c3ccc(O)c(O)c3)C(=O)N12 (centres unmarked) [Example 178]	0.78 (≈ 1.12 µM)	6.25 (≈ 8.96 µM)	3.13 (≈ 4.49 µM)	1.56 (≈ 2.24 µM)	0.2 (≈ 0.287 µM)	3.13 (≈ 4.49 µM)	12.5 (≈ 17.9 µM)	6.25 (≈ 8.96 µM)								
COc1cc(C(NC(=O)c2cnc3cccnc3c2O)C(=O)NC2C(=O)N3C(C(=O)[O-])=C(COC(C)=O)CSC23)ccc1O.[Na+] (centres unmarked) [Example 143]									3.13	12.5	6.25	3.13	0.78	6.25	100	12.5
O=C(O)C1=C(CSc2ccc(O)nn2)CSC2C(NC(=O)C(NC(=O)c3cnc4cccnc4c3O)c3ccc(O)cc3)C(=O)N12 (centres unmarked) [Example 170]	0.78 (≈ 1.18 µM)	6.25 (≈ 9.45 µM)	6.25 (≈ 9.45 µM)	1.56 (≈ 2.36 µM)	0.1 (≈ 0.151 µM)	3.13 (≈ 4.73 µM)	25 (≈ 37.8 µM)	6.25 (≈ 9.45 µM)								
